Reference: patent US20240132492A1, “PYRIDOPYRIMIDINE-BASED COMPOUND AND APPLICATION THEREOF” (JINAN UNIVERSITY, priority 2021, published 2024)
Blank lines part the entries; values can stand above or below the compound they belong to.

Tests used:
Assay type in all cases: cell-based
A431 = test: CCK-8 tumor cell proliferation, A431; conditions: Homo sapiens, A-431, A431 cells, 72 hours
Experimental: (§1) Tumor cells (see Table 2 to Table 5) were inoculated in 96-well plates in complete culture medium (2000-3000 cells/well). After overnight incubation, the compounds with different concentrations (0.000508 μM-10 μM) were used to treat the cells separately for 72 hours. CCK-8 (Cell Counting Kit 8, Dojindo Laboratories, Kumamoto, Japan) experiment was used to evaluate cell proliferation. GraphPad Prism 5.0 software (La Jolla, CA) was used to calculate the half-maximal inhibitory concentration (IC50) values by fitting the concentration response curve. Each IC50 value was represented as an average value±SD.

PC-9 = test: CCK-8 tumor cell proliferation, PC-9; conditions: Homo sapiens, PC-9 cells, 72 hours
Experimental: as §1

H1975 = test: CCK-8 tumor cell proliferation, H1975; conditions: 72 hours
Experimental: as §1

H1975OR = test: CCK-8 tumor cell proliferation, H1975OR; conditions: H1975OR cells (Osimertinib resistant), 72 hours
Experimental: (§2) Cell line: Non-small cell lung cancer H1975-OR cell line, which is an Osimertinib resistant H1975 cell line, and could be obtained through low dose gradual addition culture. Specific method: H1975 cells were spread in a 10 cm culture dish at a convergence rate of 60-70%, added 50 nM of Osimertinib to the culture medium. After the cell state stabilized, the concentration of Osimertinib was gradually double to 3 μM.
as §1

AKT3 = AKT3 (Homo sapiens, UniProt Q9Y243); test: Western Blot, degradation of AKT3 protein in H1975-OR cells; design: endogenous in cells; host or cells: H1975-OR (osimertinib-resistant H1975); conditions: 24 hours, maximum degradation rate; for Dmax at 1 µM: 1000 nM
Sequence of AKT3 (Q9Y243 whole entry): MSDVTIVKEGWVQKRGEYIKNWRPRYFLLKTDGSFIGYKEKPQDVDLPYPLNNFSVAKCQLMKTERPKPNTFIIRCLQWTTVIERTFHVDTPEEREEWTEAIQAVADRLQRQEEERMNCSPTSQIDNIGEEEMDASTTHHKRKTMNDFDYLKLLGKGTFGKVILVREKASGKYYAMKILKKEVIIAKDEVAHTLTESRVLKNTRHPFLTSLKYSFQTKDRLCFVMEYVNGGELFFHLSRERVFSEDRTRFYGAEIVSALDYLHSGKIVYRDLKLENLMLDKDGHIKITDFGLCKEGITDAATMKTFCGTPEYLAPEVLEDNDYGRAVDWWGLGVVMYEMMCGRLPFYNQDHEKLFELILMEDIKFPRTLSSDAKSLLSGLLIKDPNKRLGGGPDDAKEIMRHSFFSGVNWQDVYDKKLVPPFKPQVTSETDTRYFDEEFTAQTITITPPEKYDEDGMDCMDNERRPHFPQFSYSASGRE
Experimental: as §2
(§3) Conventional Western Blot (immunoblotting) was used for detection, as follows: a certain number of H1975-OR cells were planted on a 96 well plate, adherent cultured in an incubator overnight, and added a certain concentration of compound to act for 24 hours. 1×SDS lysis buffer with protease and phosphatase inhibitors was used to lyse cells. Cell lysates were separated by SDS-PAGE and transferred to PVDF membrane. Then, at room temperature, the PCDF membrane was taken out and immersed in a sealing solution (5% BSA TBS solution containing 0.5% Tween-20) for sealing treatment for 1 hour, and then incubated with a specific primary antibody at 4° C. overnight. The imprints were washed with TBST and incubated with horseradish peroxidase (HRP) labeled secondary antibodies at room temperature for 2 hours. Finally, ECL plus fluorescence detection reagent (Thermo Scientific, Waltham, MA) was used for protein development, and the Amersham Imager 600 system (GE, America) was used for photography. The detection results were processed using ImageJ software to obtain the grayscale value G (Density).

AKT1 = biological target: T1, AKT1 (Homo sapiens, UniProt P31749); test: Western Blot, degradation of AKT1 protein in H1975-OR cells; conditions: 24 hours, maximum degradation rate; for Dmax at 1 µM: 1000 nM
T1 construct: AKT1, AKT2, and AKT3 proteins in H1975-OR cells; endogenous in cells; host or cells: H1975-OR (osimertinib-resistant H1975)
T1 sequence (P31749 whole entry): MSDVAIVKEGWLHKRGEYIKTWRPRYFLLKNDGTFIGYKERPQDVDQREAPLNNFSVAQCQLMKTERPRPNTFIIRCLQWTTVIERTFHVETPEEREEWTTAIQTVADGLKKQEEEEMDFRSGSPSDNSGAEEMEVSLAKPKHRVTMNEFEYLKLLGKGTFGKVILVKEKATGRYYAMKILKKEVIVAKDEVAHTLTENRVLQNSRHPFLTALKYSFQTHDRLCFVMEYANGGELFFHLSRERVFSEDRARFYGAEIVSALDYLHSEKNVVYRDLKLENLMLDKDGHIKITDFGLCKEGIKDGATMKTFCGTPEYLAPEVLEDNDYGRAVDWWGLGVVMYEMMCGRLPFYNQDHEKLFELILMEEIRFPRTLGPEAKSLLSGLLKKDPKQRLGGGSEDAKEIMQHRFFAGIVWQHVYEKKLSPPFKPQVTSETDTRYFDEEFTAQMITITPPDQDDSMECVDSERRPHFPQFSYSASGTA
Experimental: as §2, §3

AKT2 = biological target: T2, AKT2 (Homo sapiens, UniProt P31751); test: Western Blot, degradation of AKT2 protein in H1975-OR cells; conditions: 24 hours, maximum degradation rate; for Dmax at 1 µM: 1000 nM
T2 construct: AKT1, AKT2, and AKT3 proteins in H1975-OR cells; endogenous in cells; host or cells: H1975-OR (osimertinib-resistant H1975)
T2 sequence (P31751 whole entry): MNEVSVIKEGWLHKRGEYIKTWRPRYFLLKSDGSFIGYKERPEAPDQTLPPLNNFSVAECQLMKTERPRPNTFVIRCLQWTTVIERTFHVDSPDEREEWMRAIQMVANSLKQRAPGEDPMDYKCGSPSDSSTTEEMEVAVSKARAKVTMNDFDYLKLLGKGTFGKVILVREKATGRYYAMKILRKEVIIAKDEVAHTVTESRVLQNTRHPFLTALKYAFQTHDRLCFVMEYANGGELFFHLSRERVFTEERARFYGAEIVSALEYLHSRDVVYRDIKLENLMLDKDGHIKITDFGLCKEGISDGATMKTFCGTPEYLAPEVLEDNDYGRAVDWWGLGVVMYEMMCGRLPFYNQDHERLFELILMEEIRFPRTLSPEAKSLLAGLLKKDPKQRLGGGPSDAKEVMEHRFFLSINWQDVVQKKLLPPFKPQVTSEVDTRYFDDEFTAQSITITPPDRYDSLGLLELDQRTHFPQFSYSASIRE
Experimental: as §2, §3

HCC827 = test: CCK-8 tumor cell proliferation, HCC827; conditions: Homo sapiens, HCC827 cells, 72 hours
Experimental: as §1

[1] = Homo sapiens, NCI-H1975, H1975 cells

Compound: COc1cc(N2CCN(CCCCCCCCCCCCNC(=O)CC34CC5CC(CC(C5)C3)C4)CC2)ccc1Nc1ncc2c(C)cc(=O)n([C@H]3CC[C@@H](NC(=O)C4CC4)C3)c2n1 [ZX-HYT-20, N-((1R,3S)-3-(2-((4-(4-(12-(2-((3R, 5R, 7R)-adamantan-1-yl)acetylamino)dodecyl)piperazin-1-yl)-2-methoxyphenyl)amino)-5-methyl-7-oxypyridino [2,3-d]pyrimidin-8 (7H)-yl)cyclopentyl) cyclopropane formamide]
- IC50 (A431): 0.106 µM
- IC50 (PC-9): 0.295 µM

Compound: COc1cc(N2CCN(CCCCCCCCNC(=O)C3CCC(F)(F)CC3)CC2)ccc1Nc1ncc2c(C)cc(=O)n(-c3cccc(NC(=O)C4CC4)c3)c2n1 [ZX-HYT-34]
- IC50 (H1975; [1]): 1.15 ± 0.42 µM
- IC50 (H1975OR): 0.25 ± 0.12 µM
- Dmax at 1 µM (AKT3): 56.6%
- Dmax at 1 µM (AKT1): 55.4%
- Dmax at 1 µM (AKT2): 67.5%

Compound: N-(3-(2-((4-(4-(12-((2-((3R, 5R, 7R)-adamantan-1-yl) ethyl) amino) dodecyl) piperazin-1-yl)-2-methoxyphenyl) amino)-5-methyl-7-oxypyrano [2,3-d] pyrimidin-8 (7H)-yl) phenyl) cyclopropane formamide [ZX-HYT-29]
- IC50 (H1975; H1975 cells): 0.98 ± 0.21 µM
- IC50 (H1975OR): 0.98 ± 0.25 µM
- Dmax (%) at 1000 nM AKT3 (AKT3): 54.7%
- Dmax (%) at 1000 nM AKT1 (AKT1): 57.51%
- Dmax (%) at 1000 nM AKT2 (AKT2): 36.43%

Compound: COc1cc(N2CCN(CCCCCCCCCCCCNC(=O)CC34CC5CC(CC(C5)C3)C4)CC2)ccc1Nc1ncc2c(C)cc(=O)n([C@H]3CCN(C(=O)C4CC4)C3)c2n1 [ZX-HYT-37]
- IC50 (H1975; [1]): 4.15 ± 0.462 µM
- IC50 (H1975OR): 6.31 ± 0.645 µM
- Dmax at 1 µM (AKT3): 17.5%
- Dmax at 1 µM (AKT1): 0%
- Dmax at 1 µM (AKT2): 0%

Compound: COc1cc(N2CCN(CCCCCCCCCCCCNC(=O)CC34CC5CC(CC(C5)C3)C4)CC2)ccc1Nc1ncc2c(C)cc(=O)n(C3CCCC3)c2n1 [ZX-HYT-24, 2-(((3R, 5R, 7R)-adamantan-1-yl)-N-(12-(4-(4-(8-cyclopentyl-5-methyl-7-oxy-7,8-dihydropyridinyl [2,3-d]pyrimidin-2-yl)amino)-3-methoxyphenyl)piperazin-1-yl)dodecyl) acetamide]
- IC50 (HCC827): 1.4 ± 0.248 µM
- IC50 (H1975; [1]): 2.67 ± 0.471 µM
- IC50 (A431): 0.212 ± 0.0653 µM
- IC50 (H1975OR): 0.734 ± 0.00594 µM
- Dmax at 1 µM (AKT3): 51.5%
- Dmax at 1 µM (AKT1): 0%
- Dmax at 1 µM (AKT2): 0%

Results, then the compound that gave them:

- IC50 (H1975; [1]): 0.00919 ± 0.00567 µM
- IC50 (H1975OR): 0.0102 ± 0.004 µM
- Dmax at 1 µM (AKT3): 55.3%
- Dmax at 1 µM (AKT1): 0%
- Dmax at 1 µM (AKT2): 51%
Compound: COc1cc(N2CCN(CCCCCCCCCCCCNC(=O)CC34CC5CC(CC(C5)C3)C4)CC2)ccc1Nc1ncc2c(C)cc(=O)n(-c3cccc(NCC4CCC4)c3)c2n1 [ZX-HYT-39, 2-((3R, 5R, 7R)-adamantan-1-yl)-N-(12-(4-(4-((8-(3-((cyclobutylmethyl)amino)phenyl)-5-methyl-7)-oxo-7,8-dihydropyridino [2,3-d]pyrimidin-2-yl)amino)-3-methoxyphenyl)piperazin-1-yl) dodecyl) acetamide]

- IC50 (H1975; [1]): 0.187 ± 0.0357 µM
- IC50 (H1975OR): 0.105 ± 0.052 µM
- Dmax at 1 µM (AKT3): 60.6%
- Dmax at 1 µM (AKT1): 0%
- Dmax at 1 µM (AKT2): 34.2%
Compound: COc1cc(N2CCN(CCCCCCCCNC(=O)CC34CC5CC(CC(C5)C3)C4)CC2)ccc1Nc1ncc2c(C)cc(=O)n(-c3cccc(NC(=O)C(C)(C)C)c3)c2n1 [ZX-HYT-48, N-(3-(2-((4-(4-(8-(2-((3R, 5R, 7R)-adamantan-1-yl)acetylamino)octyl)piperazin-1-yl)-2-methoxyphenyl))amino)-5-methyl-7-oxypyridino [2,3-d]pyrimidin-8 (7H)-yl) phenyl) neopentanamide]

- IC50 (H1975; [1]): 0.0365 ± 0.0012 µM
- IC50 (H1975OR): 0.0224 ± 0.0127 µM
- Dmax at 1 µM (AKT3): 67.5%
- Dmax at 1 µM (AKT1): 0%
- Dmax at 1 µM (AKT2): 0%
Compound: COc1cc(N2CCN(CCCCCCCCNC(=O)CC34CC5CC(CC(C5)C3)C4)CC2)ccc1Nc1ncc2c(C)cc(=O)n(-c3cccc(NC(=O)C4CC4)c3)c2n1 [ZX-HYT-47, N-(3-(2-((4-(4-(8-(2-((3R, 5R, 7R)-adamantan-1-yl)acetylamino)octyl)piperazin-1-yl)-2-methoxyphenyl))amino)-5-methyl-7-oxypyridino [2,3-d]pyrimidin-8 (7H)-yl) phenyl) cyclopropane formamide]
